“Also recorded” adds a separate entry of the source. Where a SMILES comes first, the peptide text is derived from it. Where no end group is shown, it is not given here. The star is where a group is joined. Fmoc = O=C(OCC1c2ccccc2-c2ccccc21)*; Palmitoyl = CCCCCCCCCCCCCCCC(=O)*
Columns and labels:
[1] = Zeta-potential measurement (dynamic light scattering); type: physicochemical; conditions: for Count Rate / kcps: derived count rate of scattered light during zeta-potential measurements
Method: Zeta-potential: 60 µL of the peptides (1 mg mL-1) were diluted in 600 µL, 1 mM KCI solution and placed in a disposable folded capillary cuvette. All zeta-potential measurements were conducted by dynamic light scattering technology (Zetasizer, Malvern Instruments) and in triplicates for each sample. The derived count rate of the zeta potential measurement was used as information on the light scattering intensity and turbidity of the sample as a further indicator for microscopic aggregation.

[2] = TEM of peptide assemblies (fibril formation / assembly); type: physicochemical; design: key to Fibril Formation: "1" means fibril formation observed; "0" means no fibrils observed; conditions: for TEM morphology (in words): 1 mg/mL in PBS; for Assembly without hydrophob residue: corresponding peptide without hydrophobic moiety; for Assembly: peptide amphiphile; for Fibril Formation: via TEM
Outline: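 Peptides predissolved in DMSO at 10 mg/mL (stock), diluted in PBS to 650 µM or 1 mg/mL final and incubated 1 d at rt (20–25 °C) to form fibrils. Other concentrations obtained by diluting preformed fibrils; assemblies imaged by TEM.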

HIV-1 = conditions: for enhancement of HIV-1 infection / transduction (in words): 6.5 µM, 1.3 µM, 0.26 µM; for Infectivity enhancing N fold at 1.3 µM: relative to virus only;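 as to all read-outs here: TZM-bl reporter cells exposed to HIV-1 with peptide fibrils, infection read out as β-galactosidase luminescence, compared with virus alone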
Method: HIV-1 Infection Assay with TZM-bl cells: The effect of peptide fibrils on HIV-1 infection was studied via a luminescence assay for β-galactosidase, which was reported by TZM-bl cells upon infection. The HIV-1 infection assay was conducted in three technical replicates and repeated in three independent experiments unless stated otherwise.

[3] = Zeta-potential measurement (dynamic light scattering); type: physicochemical
[4] = ATR-FT-IR determination of β-sheet content; type: physicochemical; conditions: 1 mg/mL in PBS lyophilized; integral at 1630 cm^-1 relative to 1650-1700 cm^-1
Outline: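 From second-derivative spectra, β-sheet amount is the 1630 cm-1 integral over the 1650-1700 cm-1 (native) region. Spectra were taken on solid, lyophilized fibrils via diamond-crystal ATR, averaging 64 scans at 2 cm^-1 resolution.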

HeLa cells = experiment: Confocal laser scanning microscopy and degradation study with PA library and HeLa cells; type: cell-based; conditions: for association with cellular membranes: 2 µg added to 20.000 HeLa cells, 30 min; for degradability (in words) / Degradability / % (rel. to initial particles > 10 µm^2): HeLa cells; for degradability (in words): 3 days; for Degradability / % (rel. to initial particles > 10 µm^2): 3 d relative to 30 min; for aggregate number decreases / degraded in presence of HeLa cells within 3 days: d3 relative to d0
Outline: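 HeLa cells (20,000/well) got Proteostat-stained PAs (2 µg peptide per 20.000 cells) with Hoechst nuclear stain, 30 min at 37°C, PBS-washed, then held 3 d at 37°C unwashed. Confocal imaging at d0 and d3 counted aggregates >10 µm^2 in 1008 × 1008 µm, three technical replicates. Degradation taken as d3/d0 aggregate number.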

[5] = Fluorescence microscopy of ThT-stained fibrils (µm-sized aggregates); type: physicochemical; conditions: for fluorescent, µm-sized aggregates (ThT staining): 1 mg/mL stained with 50 µM ThT
Outline: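 Fibrils (1 mg mL^-1) mixed 1:9 with 50 µM ThT, giving 0.1 mg mL^-1 stained fibrils on glass. Imaged under 10x air objective with excitation 480/40 nm and emission 527/30 nm. Fibrils called distinct when no visible structures appeared in fluorescence or brightfield.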

[6] = Thioflavin T (ThT) fluorescence assay; type: physicochemical; conditions: relative to PBS control
Method: Transmission electron microscopy (TEM) measurements, Thioflavin (ThT), zeta-potential measurements for fibril characterization were prepared and conducted according to prior art procedures. […] Fibrils were defined as distinct, if no visible structures could be identified in fluorescence and brightfield microscopy. A peptide fibril was considered as ThT-active if the fluorescence intensity was at least twice as strong compared to the control (PBS containing 10% DMSO).

Compound	zeta-potential (in words) [1]	Count Rate / kcps [1]	TEM morphology (in words) [2]	Assembly without hydrophob residue [2]	Assembly [2]	Fibril Formation ([2]; hydrophobic moiety exchange)	enhances infectivity at 1.3 µM concentration, times more efficient compared to virus only infection (HIV-1)	enhancement of HIV-1 infection / transduction (in words) (HIV-1)	Infectivity enhancing N fold at 1.3 µM (HIV-1)	Zeta-Potential / mV [3]	β-sheet amount [4]	association with cellular membranes (HeLa cells)	degradability (in words) (HeLa cells)	Degradability / % (rel. to initial particles > 10 µm^2) (HeLa cells)	aggregate number decreases / degraded in presence of HeLa cells within 3 days (HeLa cells)	formation of µm-sized aggregates in aqueous medium / PBS (in words) [5]	fluorescent, µm-sized aggregates (ThT staining) [5]	N-fold ThT-fluorescence [6]	Fibril Formation ([2]; linkage chemistry exchange)
CC(C)[C@H](NC(=O)OCC1c2ccccc2-c2ccccc21)C(=O)N[C@H](C(=O)N[C@H](C(=O)N[C@@H](C)C(=O)N[C@@H](C)C(=O)N[C@@H](C)C(=O)N[C@@H](CCCCN)C(=O)N[C@@H](CCCCN)C(=O)N[C@@H](CCCCN)C(N)=O)C(C)C)C(C)C [Pat12] (Fmoc-VVVAAAKKK-NH2)	positive zeta-potential	509.5 kcps	able to form fibrils; also recorded: fibrillar morphologies	No	Yes	1	5 times	showed infectivity enhancement	5±1 N fold	15.2 mV	52%	association with cellular membranes	non-degradable PA	28%	28%	form µm-sized aggregates	fluorescent, µm-sized aggregates	269.9	–
C16-ester-SVVVAAAKKK-NH2 (S(Palmitoyl)VVVAAAKKK-NH2; N-terminus assumed; SMILES CCCCCCCCCCCCCCCC(=O)OC[C@H](N)C(=O)N[C@H](C(=O)N[C@H](C(=O)N[C@H](C(=O)N[C@@H](C)C(=O)N[C@@H](C)C(=O)N[C@@H](C)C(=O)N[C@@H](CCCCN)C(=O)N[C@@H](CCCCN)C(=O)N[C@@H](CCCCN)C(N)=O)C(C)C)C(C)C)C(C)C) [Pat1]	–	3217.3 kcps	fibrillar morphologies	No	Yes	–	17 times	–	17±5 N fold	20.5 mV	43%	association with cellular membranes	degraded well, but not as efficient as PA1 or Pat3; also recorded: degradable PA	31%	30%	–	fluorescent, µm-sized aggregates	277.1	1
C16-thioester-CVVVAAAKKK-NH2 (C(Palmitoyl)VVVAAAKKK-NH2; N-terminus assumed; SMILES CCCCCCCCCCCCCCCC(=O)SC[C@H](N)C(=O)N[C@H](C(=O)N[C@H](C(=O)N[C@H](C(=O)N[C@@H](C)C(=O)N[C@@H](C)C(=O)N[C@@H](C)C(=O)N[C@@H](CCCCN)C(=O)N[C@@H](CCCCN)C(=O)N[C@@H](CCCCN)C(N)=O)C(C)C)C(C)C)C(C)C) [Pat3]	–	2058.5 kcps	fibrillar morphologies	No	Yes	–	11 times	potent enhancers of HIV-1 infection	11±4 N fold	18.3 mV	50%	association with cellular membranes	degradable PA	87%	87%	–	fluorescent, µm-sized aggregates	166.1	1

— patent EP4458977A1, “SELF-ASSEMBLING PEPTIDE AMPHIPHILES AS RETROVIRAL TRANSDUCTION ENHANCERS” (Max-Planck-Gesellschaft zur Förderung der Wissenschaften …, priority 2023, dated 2024)
